“And” between values parts separate entries of the source, which are not always exact repeats. Equal entries are not always repeated.
Assay: Tissue distribution of radioactivity in mice
Format: in vivo, mouse
Settings: mean ± SD n = 4
Method: [^11C]MMP (8.1 MBq/17 pmol) was injected intravenously into 8-week-old male ddY mice (37.8–42.4 g). The tracer-injected mice were housed individually in filter-paper-lined animal-rearing cages until the time of euthanasia. Mice were euthanized by cervical dislocation at 1, 5, 15, 30, 60, and 90 min after injection (n = 4 each). Blood was collected by heart puncture, and the tissues were harvested. Radioactivity excreted into urine was recovered from the cage floor and by cystocentesis from the urinary bladder. The samples were measured for ^11C radioactivity with an auto-gamma counter (Hidex-AMG, Turku, Finland) and weighed. Tissue uptake of ^11C was expressed as the percentage of injected dose per organ (%ID/organ) or the percentage of injected dose per gram of tissue (%ID/g). The tissue distribution data were extrapolated to an adult male phantom using the %kg/g method (Blau [1975]). The radiation absorbed dose and effective dose for human adults were estimated using OLINDA/EXM software (Vanderbilt University, Nashville, TN) (Stabin et al. [2005]). Effective dose was estimated using the risk-weighting factor of ICRP Publication 103 (ICRP [2007]).

In the case of `CC(C)NC(C)Cc1ccc([11CH3])cc1` (centres unmarked) [[^11C]MMP, N-isopropyl-4-[^11C]methylamphetamine], the “Injected dose/g tissue (%), Blood” value (1 min after i.v. injection) is reported as 1.40 ± 0.24 %ID/g, the “Injected dose/g tissue (%), Bone” value (1 min after i.v. injection) is reported as 2.21 ± 0.54 %ID/g and the “Injected dose/g tissue (%), Brain” value (1 min after i.v. injection) is reported as 5.75 ± 0.42 %ID/g. For the same compound, the “Injected dose/g tissue (%), Heart” value (1 min after i.v. injection) was 8.23 ± 1.30 %ID/g, the “Injected dose/g tissue (%), Kidney” value (1 min after i.v. injection) was 12.93 ± 7.10 %ID/g and the “Injected dose/g tissue (%), Large intestine” value (1 min after i.v. injection) was 1.92 ± 0.95 %ID/g. The “Injected dose/g tissue (%), Liver” value (1 min after i.v. injection) was 1.56 ± 0.87 %ID/g, the “Injected dose/g tissue (%), Lung” value (1 min after i.v. injection) was 28 %ID/g and 27.53 ± 4.66 %ID/g and the “Injected dose/g tissue (%), Muscle” value (1 min after i.v. injection) was 1.77 ± 0.86 %ID/g. For the same compound, the “Injected dose/g tissue (%), Pancreas” value (1 min after i.v. injection) was 3.96 ± 1.02 %ID/g, the “Injected dose/g tissue (%), Small intestine” value (1 min after i.v. injection) was 1.49 ± 0.84 %ID/g and the “Injected dose/g tissue (%), Spleen” value (1 min after i.v. injection) was 1.46 ± 0.42 %ID/g. The “Injected dose/g tissue (%), Stomach” value (1 min after i.v. injection) was 2.06 ± 1.30 %ID/g, the “Injected dose/g tissue (%), Testis” value (1 min after i.v. injection) was 0.96 ± 0.24 %ID/g and the “Injected dose/organ (%), Bladder” value (1 min after i.v. injection) was 0.07 ± 0.05 %ID/organ. The “Injected dose/organ (%), Bladder + urine” value (1 min after i.v. injection) was 0.07 ± 0.05 %ID/organ, the “Injected dose/organ (%), Brain” value (1 min after i.v. injection) was 2.28 ± 0.25 %ID/organ and the “Injected dose/organ (%), Heart” value (1 min after i.v. injection) was 1.56 ± 0.27 %ID/organ. For the same compound, the “Injected dose/organ (%), Kidney” value (1 min after i.v. injection) was 7.4 %ID/organ and 7.44 ± 4.00 %ID/organ, the “Injected dose/organ (%), Large intestine” value (1 min after i.v. injection) was 2.47 ± 1.19 %ID/organ and the “Injected dose/organ (%), Liver” value (1 min after i.v. injection) was 2.63 ± 1.23 %ID/organ. The “Injected dose/organ (%), Lung” value (1 min after i.v. injection) was 5.54 ± 0.95 %ID/organ, the “Injected dose/organ (%), Pancreas” value (1 min after i.v. injection) was 0.76 ± 0.23 %ID/organ and the “Injected dose/organ (%), Small intestine” value (1 min after i.v. injection) was 2.74 ± 1.46 %ID/organ. The “Injected dose/organ (%), Spleen” value (1 min after i.v. injection) was 0.17 ± 0.07 %ID/organ, the “Injected dose/organ (%), Stomach” value (1 min after i.v. injection) was 1.59 ± 1.06 %ID/organ and the “Injected dose/organ (%), Testis” value (1 min after i.v. injection) was 0.24 ± 0.03 %ID/organ. The “Injected dose/organ (%), Urine” value (1 min after i.v. injection) was 0.00 ± 0.00 %ID/organ, the “Injected dose/g tissue (%), Blood” value (5 min after i.v. injection) was 1.10 ± 0.14 %ID/g and the “Injected dose/g tissue (%), Bone” value (5 min after i.v. injection) was 2.20 ± 0.30 %ID/g. For the same compound, the “Injected dose/g tissue (%), Brain” value (5 min after i.v. injection) was 6.87 ± 0.62 %ID/g, the “Injected dose/g tissue (%), Heart” value (5 min after i.v. injection) was 3.53 ± 0.21 %ID/g and the “Injected dose/g tissue (%), Kidney” value (5 min after i.v. injection) was 16.26 ± 1.85 %ID/g. The “Injected dose/g tissue (%), Large intestine” value (5 min after i.v. injection) was 2.36 ± 0.41 %ID/g, the “Injected dose/g tissue (%), Liver” value (5 min after i.v. injection) was 4.30 ± 0.84 %ID/g and the “Injected dose/g tissue (%), Lung” value (5 min after i.v. injection) was 21.20 ± 1.81 %ID/g. The “Injected dose/g tissue (%), Muscle” value (5 min after i.v. injection) was 2.14 ± 0.14 %ID/g, the “Injected dose/g tissue (%), Pancreas” value (5 min after i.v. injection) was 8.21 ± 0.70 %ID/g and the “Injected dose/g tissue (%), Small intestine” value (5 min after i.v. injection) was 3.65 ± 0.21 %ID/g. The “Injected dose/g tissue (%), Spleen” value (5 min after i.v. injection) was 5.09 ± 0.59 %ID/g, the “Injected dose/g tissue (%), Stomach” value (5 min after i.v. injection) was 3.24 ± 1.94 %ID/g and the “Injected dose/g tissue (%), Testis” value (5 min after i.v. injection) was 1.26 ± 0.25 %ID/g. The “Injected dose/organ (%), Bladder” value (5 min after i.v. injection) was 0.09 ± 0.03 %ID/organ, the “Injected dose/organ (%), Bladder + urine” value (5 min after i.v. injection) was 3.51 ± 1.80 %ID/organ and the “Injected dose/organ (%), Brain” value (5 min after i.v. injection) was 2.68 ± 0.33 %ID/organ. The “Injected dose/organ (%), Heart” value (5 min after i.v. injection) was 0.63 ± 0.05 %ID/organ, the “Injected dose/organ (%), Kidney” value (5 min after i.v. injection) was 9.5 %ID/organ and 9.54 ± 0.98 %ID/organ and the “Injected dose/organ (%), Large intestine” value (5 min after i.v. injection) was 2.7 %ID/organ and 2.68 ± 0.45 %ID/organ. For the same compound, the “Injected dose/organ (%), Liver” value (5 min after i.v. injection) was 9.53 ± 2.41 %ID/organ, the “Injected dose/organ (%), Lung” value (5 min after i.v. injection) was 3.21 ± 0.65 %ID/organ and the “Injected dose/organ (%), Pancreas” value (5 min after i.v. injection) was 1.70 ± 0.23 %ID/organ. For the same compound, the “Injected dose/organ (%), Small intestine” value (5 min after i.v. injection) was 6.8 %ID/organ and 6.77 ± 0.37 %ID/organ, the “Injected dose/organ (%), Spleen” value (5 min after i.v. injection) was 0.57 ± 0.05 %ID/organ and the “Injected dose/organ (%), Stomach” value (5 min after i.v. injection) was 1.88 ± 0.90 %ID/organ. For the same compound, the “Injected dose/organ (%), Testis” value (5 min after i.v. injection) was 0.32 ± 0.06 %ID/organ, the “Injected dose/organ (%), Urine” value (5 min after i.v. injection) was 3.42 ± 1.82 %ID/organ and the “Injected dose/g tissue (%), Blood” value (15 min after i.v. injection) was 0.72 ± 0.23 %ID/g. For the same compound, the “Injected dose/g tissue (%), Bone” value (15 min after i.v. injection) was 1.29 ± 0.18 %ID/g, the “Injected dose/g tissue (%), Brain” value (15 min after i.v. injection) was 4.83 ± 0.21 %ID/g and the “Injected dose/g tissue (%), Heart” value (15 min after i.v. injection) was 1.93 ± 0.18 %ID/g. For the same compound, the “Injected dose/g tissue (%), Kidney” value (15 min after i.v. injection) was 11.36 ± 1.39 %ID/g, the “Injected dose/g tissue (%), Large intestine” value (15 min after i.v. injection) was 1.59 ± 0.62 %ID/g and the “Injected dose/g tissue (%), Liver” value (15 min after i.v. injection) was 6.07 ± 1.10 %ID/g. The “Injected dose/g tissue (%), Lung” value (15 min after i.v. injection) was 7.97 ± 0.89 %ID/g, the “Injected dose/g tissue (%), Muscle” value (15 min after i.v. injection) was 1.22 ± 0.10 %ID/g and the “Injected dose/g tissue (%), Pancreas” value (15 min after i.v. injection) was 8.55 ± 1.10 %ID/g. The “Injected dose/g tissue (%), Small intestine” value (15 min after i.v. injection) was 3.29 ± 0.83 %ID/g, the “Injected dose/g tissue (%), Spleen” value (15 min after i.v. injection) was 4.45 ± 0.69 %ID/g and the “Injected dose/g tissue (%), Stomach” value (15 min after i.v. injection) was 4.51 ± 1.35 %ID/g. The “Injected dose/g tissue (%), Testis” value (15 min after i.v. injection) was 1.63 ± 0.16 %ID/g, the “Injected dose/organ (%), Bladder” value (15 min after i.v. injection) was 0.60 ± 0.32 %ID/organ and the “Injected dose/organ (%), Bladder + urine” value (15 min after i.v. injection) was 13.64 ± 2.31 %ID/organ. For the same compound, the “Injected dose/organ (%), Brain” value (15 min after i.v. injection) was 2.12 ± 0.06 %ID/organ, the “Injected dose/organ (%), Heart” value (15 min after i.v. injection) was 0.33 ± 0.02 %ID/organ and the “Injected dose/organ (%), Kidney” value (15 min after i.v. injection) was 7.47 ± 1.09 %ID/organ. The “Injected dose/organ (%), Large intestine” value (15 min after i.v. injection) was 2.13 ± 1.04 %ID/organ, the “Injected dose/organ (%), Liver” value (15 min after i.v. injection) was 15 %ID/organ and 14.98 ± 2.48 %ID/organ and the “Injected dose/organ (%), Lung” value (15 min after i.v. injection) was 1.47 ± 0.10 %ID/organ. The “Injected dose/organ (%), Pancreas” value (15 min after i.v. injection) was 1.74 ± 0.24 %ID/organ, the “Injected dose/organ (%), Small intestine” value (15 min after i.v. injection) was 6.13 ± 1.74 %ID/organ and the “Injected dose/organ (%), Spleen” value (15 min after i.v. injection) was 0.64 ± 0.12 %ID/organ. The “Injected dose/organ (%), Stomach” value (15 min after i.v. injection) was 2.46 ± 0.69 %ID/organ, the “Injected dose/organ (%), Testis” value (15 min after i.v. injection) was 0.45 ± 0.05 %ID/organ and the “Injected dose/organ (%), Urine” value (15 min after i.v. injection) was 13.03 ± 2.51 %ID/organ. The “Injected dose/g tissue (%), Blood” value (30 min after i.v. injection) was 0.62 ± 0.21 %ID/g, the “Injected dose/g tissue (%), Bone” value (30 min after i.v. injection) was 0.76 ± 0.26 %ID/g and the “Injected dose/g tissue (%), Brain” value (30 min after i.v. injection) was 2.63 ± 0.22 %ID/g. The “Injected dose/g tissue (%), Heart” value (30 min after i.v. injection) was 1.16 ± 0.22 %ID/g, the “Injected dose/g tissue (%), Kidney” value (30 min after i.v. injection) was 7.08 ± 1.91 %ID/g and the “Injected dose/g tissue (%), Large intestine” value (30 min after i.v. injection) was 1.22 ± 0.63 %ID/g. For the same compound, the “Injected dose/g tissue (%), Liver” value (30 min after i.v. injection) was 5.46 ± 0.97 %ID/g, the “Injected dose/g tissue (%), Lung” value (30 min after i.v. injection) was 3.68 ± 0.50 %ID/g and the “Injected dose/g tissue (%), Muscle” value (30 min after i.v. injection) was 0.78 ± 0.17 %ID/g. The “Injected dose/g tissue (%), Pancreas” value (30 min after i.v. injection) was 4.58 ± 0.52 %ID/g, the “Injected dose/g tissue (%), Small intestine” value (30 min after i.v. injection) was 2.14 ± 0.67 %ID/g and the “Injected dose/g tissue (%), Spleen” value (30 min after i.v. injection) was 2.48 ± 0.45 %ID/g. For the same compound, the “Injected dose/g tissue (%), Stomach” value (30 min after i.v. injection) was 2.69 ± 0.26 %ID/g and the “Injected dose/g tissue (%), Testis” value (30 min after i.v. injection) was 1.69 ± 0.36 %ID/g.

Reference: publication PMC11266321 (EJNMMI Radiopharmacy and Chemistry, 2024)
